According to US20070117808A1, “Substituted Cycloalkylpyrrolones As Allosteric Modulators Of Glucokinase” (priority 2005, published 2007):
Values joined by “and” are separate entries in the source; they are usually repeats but may differ in a detail not shown here. Identical values can stand only once.

Assays:
[1] = target: T1, human liver Glucokinase (GK) (Homo sapiens, UniProt P35557); test: Glucokinase enzyme assay, liver GK; format: biochemical; conditions: for activation at 50 µM: percentage increase in GK activity above vehicle control, compound 50 μM, 12 mM glucose; for EC50: concentration that produces 50% activation above the vehicle control; for EC100%: concentration that produces 100% activation above the vehicle control
T1 construct: (His)6; made in house; host or cells: Escherichia coli
T1 sequence (P35557 1-466 isoform P35557-2): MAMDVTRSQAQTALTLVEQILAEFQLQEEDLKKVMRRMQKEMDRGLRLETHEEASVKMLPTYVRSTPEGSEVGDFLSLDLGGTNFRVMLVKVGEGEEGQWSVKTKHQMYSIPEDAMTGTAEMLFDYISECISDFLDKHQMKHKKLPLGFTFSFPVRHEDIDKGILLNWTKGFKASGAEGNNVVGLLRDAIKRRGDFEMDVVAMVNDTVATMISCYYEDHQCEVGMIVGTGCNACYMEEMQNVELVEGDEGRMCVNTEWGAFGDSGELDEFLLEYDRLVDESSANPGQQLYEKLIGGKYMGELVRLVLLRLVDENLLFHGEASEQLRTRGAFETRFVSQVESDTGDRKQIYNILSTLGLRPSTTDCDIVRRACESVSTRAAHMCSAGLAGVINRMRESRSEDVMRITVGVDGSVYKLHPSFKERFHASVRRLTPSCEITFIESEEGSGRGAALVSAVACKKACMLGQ
Text: (§1) An enzymatic Glucokinase (GK) assay using purified recombinant human liver/pancreas enzyme was used to evaluate the effects of potential small molecule modulators.
(§2) In this assay, GK catalyzes glucose phosphorylation in the presence of ATP. The product of this reaction, glucose-6-phosphate, was then oxidized by an excess of glucose-6-phosphate dehydrogenase to produce gluconate-6-phosphate with concomitant reduction of nicotinamide adenine dinucleotide (NAD). […] Human GK (Liver/Pancreas) was expressed in Escherichia coli as a (His) 6-tagged fusion protein and was purified by metal chelate affinity chromatography. The assay was performed in a final incubation volume of 80 μl in a 96-well clear low UV absorption plates. The incubation mixture consisted of 25 mM HEPES, 2 mM MgSO4, 1 mM dithiothreotol (DTT), 1 mg/mL bovine serum albumin (BSA), 1 mM ATP, 1 mM NAD, and 12 mM glucose, 10 units per mL glucose-6-phosphate dehydrogenase, and +/−300 ng per mL GK. For determination of the affinity (Km) and Vmax, different concentrations of glucose ranging from 0.5 mM to 40 mM were used in the assay; see Grimsby, J., Sarabu, R.; Grippo, J. F.; et. al. Science 2003, 301, 370-373. Production of reduced NAD (Nicotinamide Adenine Dinucleotide) was measured as changes in absorption at 340 nm in 96-well plate reader (Envision model # 2101 Multilabel Plate reader). % Activation @ 50 μM was calculated as the percentage increase in GK activity above the vehicle control with the effective concentration of the compound being 50 μM. EC50% (μM) was calculated as the effective concentration of the compound that produces 50% activation above the vehicle control, and EC100% (μM) was calculated as the effective concentration of the compound that produces 100% activation above the vehicle control.

[2] = target: T2, human pancreas Glucokinase (GK) (Homo sapiens, UniProt P35557); test: Glucokinase enzyme assay, pancreas GK; format: biochemical; conditions: for activation at 50 µM: percentage increase in GK activity above vehicle control, compound 50 μM, 12 mM glucose; for EC50: concentration that produces 50% activation above the vehicle control; for EC100%: concentration that produces 100% activation above the vehicle control
T2 construct: (His)6; made in house; host or cells: Escherichia coli
T2 sequence (P35557 1-465): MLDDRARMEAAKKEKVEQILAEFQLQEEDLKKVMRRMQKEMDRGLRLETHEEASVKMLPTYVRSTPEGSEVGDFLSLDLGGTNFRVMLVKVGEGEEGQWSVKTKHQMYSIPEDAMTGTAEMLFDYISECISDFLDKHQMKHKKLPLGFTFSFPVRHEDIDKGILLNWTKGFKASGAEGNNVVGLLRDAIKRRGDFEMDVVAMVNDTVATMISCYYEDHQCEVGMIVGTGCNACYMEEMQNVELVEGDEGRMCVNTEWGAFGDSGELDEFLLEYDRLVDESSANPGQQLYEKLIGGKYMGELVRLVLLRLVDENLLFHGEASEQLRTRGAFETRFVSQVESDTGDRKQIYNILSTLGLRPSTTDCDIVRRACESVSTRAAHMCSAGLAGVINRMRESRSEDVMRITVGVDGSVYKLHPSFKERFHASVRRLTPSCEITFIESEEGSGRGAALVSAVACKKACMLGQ
Text: as §1, §2

| SMILES | activation at 50 µM [1] [%] | activation at 50 µM [2] [%] | EC50 [1] | EC100% [1] | EC50 [2] | EC100% [2] |
| --- | --- | --- | --- | --- | --- | --- |
| COC(=O)c1ccc(NC(=O)CSC2C3=C(CCCC3)C(=O)N2Cc2ccc(OC)c(OC)c2)nc1 (stereo not drawn) [Compound 9, 6-{2-[2-(3,4-Dimethoxy-benzyl)-3-oxo-2,3,4,5,6,7-hexahydro-1H-isoindol-1-ylsulfanyl]-acetylamino}-nicotinic acid methyl ester] | 206 | 164 | 0.25 µM | 1.43 µM | 0.33 µM | 2.2 µM |
| COc1ccc(CN2C(=O)C3=C(CCCC3)C2OCC(=O)Nc2ccccn2)cc1 (stereo not drawn) [Compound 4, 2-[2-(4-Methoxy-benzyl)-3-oxo-2,3,4,5,6,7-hexahydro-1H-isoindol-1-yloxy]-N-pyridin-2-yl-acetamide] | 114 |  | 7.78 µM | 31.4 µM |  |  |
| COc1ccc(CN2C(=O)C3=C(CCC3)C2SCC(=O)Nc2ccccn2)cc1 (stereo not drawn) [Compound 16, 2-[2-(4-Methoxy-benzyl)-3-oxo-1,2,3,4,5,6-hexahydro-cyclopenta[c]pyrrol-1-ylsulfanyl]-N-pyridin-2-yl-acetamide] |  | 190 |  |  | 1.1 µM | 4.9 µM |
| COc1ccc(CN2C(=O)C3=C(CCCC3)C2SCC(=O)Nc2ccccn2)cc1 (stereo not drawn) [Compound 3, 2-[2-(4-Methoxy-benzyl)-3-oxo-2,3,4,5,6,7-hexahydro-1H-isoindol-1-ylsulfanyl]-N-pyridin-2-yl-acetamide] | 250 |  | 0.39 µM | 1 µM |  |  |
| COc1ccc(CN2C(=O)C3=C(CCCC3)C2SCC(=O)Nc2nccs2)cc1OC (stereo not drawn) [Compound 12, 2-[2-(3,4-Dimethoxy-benzyl)-3-oxo-2,3,4,5,6,7-hexahydro-1H-isoindol-1-ylsulfanyl]-N-thiazol-2-yl-acetamide] | 196 | 143 | 3.1 µM | 10.3 µM | 4.3 µM | 17.1 µM |
| NC(=O)c1ccc(NC(=O)CSC2C3=C(CCCC3)C(=O)N2Cc2ccc(F)cc2)nc1 (stereo not drawn) [Compound 20, 6-{2-[2-(4-Fluorobenzyl)-3-oxo-2,3,4,5,6,7-hexahydro-1H-isoindol-1-sulfanyl]-acetylamino}-nicotinamide] |  |  |  |  | 0.45 µM and 0.27 µM | 2 µM and 3.6 µM |
| O=C(CSC1C2=C(CCCC2)C(=O)N1Cc1ccc(O)cc1)Nc1nccs1 (stereo not drawn) [Compound 15, 2-[2-(4-Hydroxy-benzyl)-3-oxo-2,3,4,5,6,7-hexahydro-1H-isoindol-1-ylsulfanyl]-N-thiazol-2-yl-acetamide] |  | 106 |  |  | 7.3 µM | >50 µM |
| COc1ccc(CN2C(=O)C3=C(CCCC3)C2SCC(=O)Nc2ccc(C(N)=O)cn2)cc1OC (stereo not drawn) [Compound 13, 6-{2-[2-(3,4-Dimethoxy-benzyl)-3-oxo-2,3,4,5,6,7-hexahydro-1H-isoindol-1-ylsulfanyl]-acetylamino}-nicotinamide] |  |  |  |  | 0.21 µM | 3.1 µM |
| COc1ccc(CN2C(=O)C3=C(CCCC3)C2SCC(=O)Nc2ccccn2)cc1OC (stereo not drawn) [Compound 10, 2-[2-(3,4-Dimethoxy-benzyl)-3-oxo-2,3,4,5,6,7-hexahydro-1H-isoindol-1-ylsulfanyl]-N-pyridin-2-yl-acetamide] | 259 |  | 0.39 µM | 1.35 µM | 0.45 µM | 1.8 µM |

Other lines, results leading:

| activation at 50 µM [1] [%] | activation at 50 µM [2] [%] | EC50 [1] | EC100% [1] | EC50 [2] | EC100% [2] | SMILES |
| --- | --- | --- | --- | --- | --- | --- |
| 21 | 79 |  |  |  |  | COc1ccc([C@H](C)N2C(=O)C3=C(CCCC3)[C@@H]2SCC(=O)Nc2ccccn2)cc1 (single isomer, unassigned) [Compound 6] |
|  |  |  |  | 3.6 µM | 22 µM | O=C(CSC1C2=C(CCCC2)C(=O)N1Cc1cccnc1)Nc1ccccn1 (stereo not drawn) [Compound 18, 2-(3-Oxo-2-pyridin-3-ylmethyl-2,3,4,5,6,7-hexahydro-1H-isoindol-1-ylsulfanyl)-N-pyridin-2-yl-acetamide] |
|  | 218 |  |  | 1.6 µM | 5 µM | O=C(CSC1C2=C(CCCC2)C(=O)N1Cc1ccncc1)Nc1ccccn1 (stereo not drawn) [Compound 19, 2-(3-Oxo-2-pyridin-4-ylmethyl-2,3,4,5,6,7-hexahydro-1H-isoindol-1-ylsulfanyl)-N-pyridin-2-yl-acetamide] |
|  |  | 0.16 µM and 0.21 µM | 0.52 µM and 0.98 µM | 0.35 µM | 1.32 µM | COC(=O)c1ccc(NC(=O)CSC2C3=C(CCCC3)C(=O)N2Cc2ccc(OC)cc2)nc1 (stereo not drawn) [Compound 2] |
|  |  | 0.9 µM | 2.5 µM | 1.3 µM and 0.74 µM and 0.63 µM |  | COc1ccc(CN2C(=O)C3=C(CCCC3)C2SCC(=O)Nc2ccc(C(=O)O)cn2)cc1 (stereo not drawn) [Compound 8, 6-{2-[2-(4-Methoxy-benzyl)-3-oxo-2,3,4,5,6,7-hexahydro-1H-isoindol-1-ylsulfanyl]-acetylamino}-nicotinic acid] |
|  |  | 3.1 µM and 1.05 µM | 5.54 µM |  |  | COC(=O)c1ccc(NC(=O)CSC2C3=C(CCCC3)C(=O)N2Cc2ccc(OC(C)C)cc2)nc1 (stereo not drawn) [Compound 5] |
|  | 165 |  |  | 2.2 µM | 12 µM | O=C(CSC1C2=C(CCCC2)C(=O)N1Cc1ccc(F)cc1)Nc1ccc(C(=O)O)cn1 (stereo not drawn) [Compound 21, 6-{2-[2-(4-Fluoro-benzyl)-3-oxo-2,3,4,5,6,7-hexahydro-1H-isoindol-1-ylsulfanyl]-acetylamino}-nicotinic acid] |
| 0 | 35 |  |  |  |  | COc1ccc([C@H](C)N2C(=O)C3=C(CCCC3)[C@H]2SCC(=O)Nc2ccccn2)cc1 (single isomer, unassigned) [Compound 7] |
|  | 125 |  |  | 0.71 µM | 6.3 µM | O=C(CSC1C2=C(CCCC2)C(=O)N1Cc1cccc2ccccc12)Nc1ccccn1 (stereo not drawn) [Compound 17, 2-(2-Naphthalen-1-ylmethyl-3-oxo-2,3,4,5,6,7-hexahydro-1H-isoindol-1-ylsulfanyl)-N-pyridin-2-yl-acetamide] |
|  | 79.4 |  |  | 10.9 µM | >50 µM | O=C(CSC1C2=C(CCCC2)C(=O)N1Cc1ccc([N+](=O)[O-])cc1)Nc1ccccn1 (stereo not drawn) [Compound 14, 2-[2-(4-Nitro-benzyl)-3-oxo-2,3,4,5,6,7-hexahydro-1H-isoindol-1-ylsulfanyl]-N-pyridin-2-yl-acetamide] |
| 202 | 168 | 0.55 µM | 3.5 µM | 0.8 µM | 5.7 µM | COc1ccc(CN2C(=O)C3=C(CCCC3)C2SCC(=O)Nc2ccc(C)cn2)cc1OC (stereo not drawn) [Compound 11, 2-[2-(3,4-Dimethoxy-benzyl)-3-oxo-2,3,4,5,6,7-hexahydro-1H-isoindol-1-ylsulfanyl]-N-(5-methyl-pyridin-2-yl)-acetamide] |
